Compound in one assay: O=C(CCCCCCC(=O)Nc1ccccc1)NO [VORINOSTAT]
In words: surviving fraction relative to DMSO-only wells; higher = less growth inhibition. The following applies: exposure time: 5 days. The method in brief: (§1)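 Log-phase tumour cells were seeded at 250–500 per well in 384-well plates and, from 24 hours after seeding, exposed continuously for five days to inhibitors at 0.5, 1, 5, 10, 50, 100, 500 and 1000 nM. Surviving fraction is CellTiter-Glo luminescence normalised to the median of DMSO-only wells. Luminescence was measured after 10 minutes at room temperature, and only lines screened three times with replicate Pearson r >0.7 and median Z' >0.3 were kept.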

Compound in assay [1]: CCc1cc(Nc2nccc(-c3c(-c4ccc(OC)c(C(=O)Nc5c(F)cccc5F)c4)nc4ccccn34)n2)c(OC)cc1N1CCC(N2CCN(S(C)(=O)=O)CC2)CC1
Described as above. The settings on record: exposure time: 5 days. The method in brief: as §1

± gives the standard deviation of the averaged measurements.

With HMT3552 BREAST, the surviving fraction with VORINOSTAT (0.5 nM) turned out to be 0.95; with VORINOSTAT (1 nM), 1.12; in the assay with VORINOSTAT (5 nM), 1.03; in the assay with VORINOSTAT (10 nM) it was 1.01; in the assay with VORINOSTAT (50 nM), 1.09; with VORINOSTAT (100 nM), 1.14. Besides, the surviving fraction came out at 0.656 with VORINOSTAT (500 nM); 0.329 with VORINOSTAT (1000 nM); 1.14 in assay [1] (0.5 nM); 1.08 in assay [1] (1 nM); 1.08 in assay [1] (5 nM); 1.1 in assay [1] (10 nM). For the same test system, the surviving fraction in assay [1] (50 nM) was 1.17; in assay [1] (100 nM), 1.18; in assay [1] (500 nM) it was 1.21; in assay [1] (1000 nM), 1.3.
For the test system HS578T BREAST, the surviving fraction was 0.951 ± 0.12 with VORINOSTAT (0.5 nM); 0.888 ± 0.12 with VORINOSTAT (1 nM); 0.922 ± 0.2 in the assay with VORINOSTAT (5 nM); 0.989 ± 0.11 with VORINOSTAT (10 nM); 0.945 ± 0.2 with VORINOSTAT (50 nM); 0.821 ± 0.068 with VORINOSTAT (100 nM). The surviving fraction was 0.569 ± 0.08 in the assay with VORINOSTAT (500 nM); 0.347 ± 0.034 in the assay with VORINOSTAT (1000 nM); 0.891 ± 0.1 in assay [1] (0.5 nM); 0.952 ± 0.025 in assay [1] (1 nM); 0.965 ± 0.12 in assay [1] (5 nM); 0.902 ± 0.042 in assay [1] (10 nM). The surviving fraction in assay [1] (50 nM) worked out at 0.803 ± 0.064; in assay [1] (100 nM), 0.88 ± 0.14; in assay [1] (500 nM), 0.931 ± 0.022; in assay [1] (1000 nM), 0.776 ± 0.078.
Take G292 BONE: the surviving fraction with VORINOSTAT (0.5 nM) was 1.02 ± 0.027; with VORINOSTAT (1 nM), 0.995 ± 0.029; with VORINOSTAT (5 nM) it was 0.982 ± 0.046; in the assay with VORINOSTAT (10 nM), 1.04 ± 0.047; in the assay with VORINOSTAT (50 nM), 0.979 ± 0.04; with VORINOSTAT (100 nM) it was 0.947 ± 0.036. Also, the surviving fraction worked out at 0.691 ± 0.032 with VORINOSTAT (500 nM); 0.511 ± 0.03 with VORINOSTAT (1000 nM); 1.03 ± 0.072 in assay [1] (0.5 nM); 0.969 ± 0.032 in assay [1] (1 nM); 1 ± 0.061 in assay [1] (5 nM); 1 ± 0.023 in assay [1] (10 nM). Moreover, the surviving fraction in assay [1] (50 nM) came out at 1.03 ± 0.041; in assay [1] (100 nM), 0.994 ± 0.013; in assay [1] (500 nM) it was 1.018 ± 0.0097; in assay [1] (1000 nM), 0.975 ± 0.035.
Consider HCC38 BREAST, for which the surviving fraction with VORINOSTAT (0.5 nM) was found to be 1.25 ± 0.035; with VORINOSTAT (1 nM) it was 1.25 ± 0.028; with VORINOSTAT (5 nM) it was 1.27 ± 0.15; with VORINOSTAT (10 nM) it was 1.24 ± 0.097; with VORINOSTAT (50 nM), 1.42 ± 0.26; in the assay with VORINOSTAT (100 nM), 1.23 ± 0.21. In addition, the surviving fraction with VORINOSTAT (500 nM) stood at 1.06 ± 0.066; in the assay with VORINOSTAT (1000 nM), 0.633 ± 0.11; in assay [1] (0.5 nM) it was 1.09 ± 0.18; in assay [1] (1 nM) it was 1.19 ± 0.28; in assay [1] (5 nM) it was 1.1 ± 0.23; in assay [1] (10 nM) it was 1.02 ± 0.23. Moreover, the surviving fraction was 0.855 ± 0.2 in assay [1] (50 nM), 1.07 ± 0.17 in assay [1] (100 nM), 0.923 ± 0.12 in assay [1] (500 nM) and 0.881 ± 0.13 in assay [1] (1000 nM).
With HMLE3 BREAST, the surviving fraction came to 0.914 ± 0.067 in the assay with VORINOSTAT (0.5 nM); 0.95 ± 0.038 with VORINOSTAT (1 nM); 1.11 ± 0.03 with VORINOSTAT (5 nM); 1.01 ± 0.095 with VORINOSTAT (10 nM); 1.04 ± 0.042 with VORINOSTAT (50 nM); 1.09 ± 0.049 with VORINOSTAT (100 nM). For the same test system, the surviving fraction worked out at 0.982 ± 0.066 in the assay with VORINOSTAT (500 nM); 0.702 ± 0.073 with VORINOSTAT (1000 nM); 0.947 ± 0.037 in assay [1] (0.5 nM); 0.931 ± 0.073 in assay [1] (1 nM); 1 ± 0.013 in assay [1] (5 nM); 1.09 ± 0.038 in assay [1] (10 nM). In addition, the surviving fraction stood at 0.967 ± 0.066 in assay [1] (50 nM), 0.979 ± 0.081 in assay [1] (100 nM), 0.908 ± 0.049 in assay [1] (500 nM) and 0.834 ± 0.062 in assay [1] (1000 nM).
HCC70 BREAST: the surviving fraction turned out to be 0.965 ± 0.061 in the assay with VORINOSTAT (0.5 nM); 0.963 ± 0.042 in the assay with VORINOSTAT (1 nM); 1 ± 0.054 with VORINOSTAT (5 nM); 1.02 ± 0.11 with VORINOSTAT (10 nM); 1.06 ± 0.094 with VORINOSTAT (50 nM); 0.973 ± 0.073 with VORINOSTAT (100 nM). Also, the surviving fraction with VORINOSTAT (500 nM) is 0.766 ± 0.037; with VORINOSTAT (1000 nM), 0.496 ± 0.049; in assay [1] (0.5 nM), 1.08 ± 0.059; in assay [1] (1 nM), 0.975 ± 0.12; in assay [1] (5 nM) it was 1.07 ± 0.039; in assay [1] (10 nM), 1.09 ± 0.1. Further, the surviving fraction in assay [1] (50 nM) stood at 1.08 ± 0.051; in assay [1] (100 nM), 1.12 ± 0.096; in assay [1] (500 nM) it was 1.03 ± 0.13; in assay [1] (1000 nM) it was 0.994 ± 0.052.

These data come from the supplement of paper PMC6045584.
